We go through one compound from paper PMC10265666, “Lung SPLUNC1 Peptide Derivatives in the Lipid Membrane Headgroup Kill Gram-Negative Planktonic and Biofilm Bacteria” (Biomacromolecules, 2023).

Data set [1] relates to Klebsiella pneumoniae, 24 clinical isolates and 1 lab strain. The format is cell-based. To be noted: average over 25 K. pneumoniae substrains; 37 °C, 16 h, OD 570 nm; growth at 32 μM counted as 64 μM. As to the method: Minimum inhibitory concentration (MIC, defined as the minimum AMP concentration to prevent bacterial growth) and biofilm data were obtained by UV–vis spectroscopy using a BioTek Epoch 2 microplate reader.
K. pneumoniae substrains were grown overnight using 50 mL plastic conical tubes on a shaker platform at 37 °C. The following day, serial dilutions of the four SPLUNC1 peptides and LL-37 were tested against these 25 substrains of K. pneumoniae using a 96-well plate. […] Following the addition of the peptides at the tested concentrations from serial dilutions to the K. pneumoniae substrains, the plates were incubated at 37 °C for 16 h. Then, visible spectroscopy at λ = 570 nm was performed to determine the bacterial absorption in each well. Those wells with an optical density reading above a threshold value were deemed resistant to the peptide, while those that were below the threshold value were deemed sensitive to the peptide. The threshold value was determined using Gen5 software with the Di lab Growth Inhibition Assay protocol.
Average MICs and standard deviations were calculated by first averaging the absorbances as a function of AMP concentration in all of the bacterial strains from four total data sets. Then, the average MICs were determined from the averaged absorbances. The standard deviations of the MICs were calculated from each of the absorbances that were used to calculate the average. Then, the standard deviations were averaged across substrains for the graph. These procedures were used to obtain an average MIC with standard deviation across all 25 substrains for one peptide, in order to compare peptide efficacy. Typically, many more substrains are used to obtain an average MIC, so this average MIC may change if thousands of substrains are compared.

A further data set has as its system 3T3 fibroblast cells. The data set is classed as cell-based, murine. As to the method:
The TetraZ cell counting kit was used to quantify cell proliferation and cell viability. It is based on a water-soluble tetrazolium salt, which, when reduced by cellular dehydrogenases, produces a chromophore. ∼5 × 10^4 immortalized mouse RAW 264.7 macrophages and 3T3 fibroblast cells were incubated in a 96-well plate and allowed to attach for 24 h. AMPs in cell culture medium (DMEM D5796, 10% FBS, 1% P/S) were added to the wells. Cells were incubated at 37 °C for 4 h with the SPLUNC1 peptide derivatives at 8, 16, 32, and 64 μM concentrations. 10 μL of TetraZ was added and incubated for an additional 1.5 h at 37 °C. A Biotek Epoch 2 visible spectrophotometer was used to read the absorbance. The absorbance by the chromophore at λ = 450nm is proportional to the number of live cells (see standard curves, Figures S1 and S2, and additional cell line results (Figures S3 and S4) in the S.I.).

Each structure is given as a SMILES string.

As for `CC[C@H](C)[C@H](NC(=O)[C@@H](NC(=O)[C@H](CO)NC(=O)[C@H](CCCCN)NC(=O)[C@@H](NC(=O)[C@H](CCCCN)NC(=O)CNC(=O)[C@H](Cc1c[nH]c2ccccc12)NC(=O)[C@@H](NC(=O)CNC(=O)CNC(=O)[C@@H](NC(=O)[C@H](Cc1c[nH]c2ccccc12)NC(=O)CNC(=O)[C@H](CCCCN)NC(=O)[C@@H](NC(=O)[C@H](CCCCN)NC(=O)[C@H](CCCCN)NC(=O)[C@H](Cc1ccccc1)NC(=O)[C@H](Cc1ccccc1)NC(=O)[C@H](CCCCN)NC(=O)[C@H](CCCCN)NC(=O)[C@@H](N)CC(C)C)C(C)C)C(C)C)C(C)C)C(C)C)C(C)C)C(=O)N[C@@H](CCCCN)C(=O)O` (stereo in doubt) [A4-153], in data set [1], the “average MIC value” stood at 18 µM. Further, in the data set on 3T3 fibroblast cells, the “concentration required for 0% viable cells (estimate)” value was 128 µM. For the same compound, the “viable cells compared to the control” value in the data set with 3T3 fibroblast cells (64 µM) is reported as approximately 30%.
